What was measured:
[1] = tested on: Fos-positive cells in brain regions of interest; assay: Fos immunohistochemistry in rat brain; type: in vivo, male Wistar rats
Procedure: Fos immunohistochemistry was used to identify the neural “signature” of SOC-1 (5 mg/kg) in rat brain relative to injections of peripheral oxytocin (OT) (1 mg/kg). SOC-1 produces a similar overall pattern of neural activation and behavioural effects as OT. However, the effects are much larger and additional areas are activated by SOC-1 that are implicated in the regulation of social behaviour (e.g. lateral septum, medial preoptic area and supraoptic nucleus). SOC-1 produces powerful activation of OT-containing neurons in both the supraoptic (FIG. 6: (A)=vehicle; (B)=oxytocin; and (C)=SOC-1) and paraventricular nucleus of the hypothalamus.

[2] = tested on: rats; assay: Conditioned place preference; settings: rat, in vivo
[3] = molecular target: T1, 5-HT1A (Homo sapiens, UniProt P08908); assay: PDSP orthosteric binding screen
T1 construct: Psychoactive Drug Screening Program (PDSP)
T1 sequence (P08908 whole entry, species assumed): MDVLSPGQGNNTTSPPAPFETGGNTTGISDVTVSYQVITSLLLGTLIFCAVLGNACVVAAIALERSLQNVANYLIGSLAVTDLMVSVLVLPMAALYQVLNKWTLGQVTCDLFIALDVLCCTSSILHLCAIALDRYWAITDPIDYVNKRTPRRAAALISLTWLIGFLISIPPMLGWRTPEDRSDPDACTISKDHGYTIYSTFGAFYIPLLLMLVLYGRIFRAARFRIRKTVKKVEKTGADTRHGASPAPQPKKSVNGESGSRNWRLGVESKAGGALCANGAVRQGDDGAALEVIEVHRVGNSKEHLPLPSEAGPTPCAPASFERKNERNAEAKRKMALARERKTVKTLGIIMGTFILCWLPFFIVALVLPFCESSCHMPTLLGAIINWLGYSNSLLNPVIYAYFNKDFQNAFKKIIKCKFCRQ
Source text: (§1) Comprehensive screening of affinity for the orthosteric binding sites for numerous receptors from the Psychoactive Drug Screening Program (PDSP) have failed as yet to identify a target, despite the powerful OT-like behavioural effects of the compound evident in vivo and the clear activation of brain OT systems evident from our Fos data.

[4] = molecular target: T2, 5-HT1B (Homo sapiens, UniProt P28222); assay: PDSP orthosteric binding screen
T2 construct: Psychoactive Drug Screening Program (PDSP)
Source text: as §1

[5] = molecular target: T3, 5-HT1D (Homo sapiens, UniProt P28221); assay: PDSP orthosteric binding screen
T3 construct: Psychoactive Drug Screening Program (PDSP)
T3 sequence (P28221 whole entry, species assumed): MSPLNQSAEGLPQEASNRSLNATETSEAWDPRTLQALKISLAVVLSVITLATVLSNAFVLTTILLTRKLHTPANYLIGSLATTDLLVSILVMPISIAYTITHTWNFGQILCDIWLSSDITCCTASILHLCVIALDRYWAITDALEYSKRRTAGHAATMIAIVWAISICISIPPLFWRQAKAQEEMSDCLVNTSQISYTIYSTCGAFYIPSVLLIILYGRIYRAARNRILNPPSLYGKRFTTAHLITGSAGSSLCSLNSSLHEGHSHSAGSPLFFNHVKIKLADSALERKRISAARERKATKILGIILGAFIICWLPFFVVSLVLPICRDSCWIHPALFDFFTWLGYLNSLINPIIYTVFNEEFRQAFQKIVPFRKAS
Source text: as §1

[6] = molecular target: T4, 5-HT2A (Homo sapiens, UniProt P28223); assay: PDSP orthosteric binding screen
T4 construct: Psychoactive Drug Screening Program (PDSP)
T4 sequence (P28223 whole entry): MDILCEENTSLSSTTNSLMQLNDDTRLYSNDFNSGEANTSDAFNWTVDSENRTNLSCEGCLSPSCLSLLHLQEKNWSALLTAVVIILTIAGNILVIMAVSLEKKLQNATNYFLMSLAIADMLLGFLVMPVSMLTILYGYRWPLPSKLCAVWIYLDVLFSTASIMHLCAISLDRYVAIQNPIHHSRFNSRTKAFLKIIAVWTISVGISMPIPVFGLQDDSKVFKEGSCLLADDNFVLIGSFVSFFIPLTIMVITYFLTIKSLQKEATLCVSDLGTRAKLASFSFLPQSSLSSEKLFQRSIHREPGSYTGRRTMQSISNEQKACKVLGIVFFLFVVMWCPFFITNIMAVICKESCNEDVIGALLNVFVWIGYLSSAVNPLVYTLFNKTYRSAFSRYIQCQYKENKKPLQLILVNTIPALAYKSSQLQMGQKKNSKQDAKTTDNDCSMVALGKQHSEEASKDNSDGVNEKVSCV
Source text: as §1

[7] = molecular target: T5, 5-HT2C (Homo sapiens, UniProt P28335); assay: PDSP orthosteric binding screen
T5 construct: Psychoactive Drug Screening Program (PDSP)
Source text: as §1

[8] = molecular target: T6, 5-HT3 (Homo sapiens, UniProt P46098); assay: PDSP orthosteric binding screen
T6 construct: Psychoactive Drug Screening Program (PDSP)
T6 sequence (P46098 24-478, species assumed): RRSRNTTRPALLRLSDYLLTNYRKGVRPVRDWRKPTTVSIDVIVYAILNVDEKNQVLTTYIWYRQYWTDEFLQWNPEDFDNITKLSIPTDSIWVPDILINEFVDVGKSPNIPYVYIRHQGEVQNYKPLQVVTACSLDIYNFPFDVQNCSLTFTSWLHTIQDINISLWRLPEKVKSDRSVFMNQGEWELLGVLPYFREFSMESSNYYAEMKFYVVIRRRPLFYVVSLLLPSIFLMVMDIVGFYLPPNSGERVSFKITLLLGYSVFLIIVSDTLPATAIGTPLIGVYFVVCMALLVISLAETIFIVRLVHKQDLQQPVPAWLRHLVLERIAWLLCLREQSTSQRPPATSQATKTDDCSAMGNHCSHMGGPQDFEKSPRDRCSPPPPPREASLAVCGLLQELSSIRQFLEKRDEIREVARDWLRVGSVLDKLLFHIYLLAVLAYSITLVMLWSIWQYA
Source text: as §1

[9] = molecular target: T7, 5-HT6 (Homo sapiens, UniProt P50406); assay: PDSP orthosteric binding screen
T7 construct: Psychoactive Drug Screening Program (PDSP)
Source text: as §1

[10] = molecular target: T8, 5-HT7 (Homo sapiens, UniProt P34969); assay: PDSP orthosteric binding screen
T8 construct: Psychoactive Drug Screening Program (PDSP)
Source text: as §1

[11] = molecular target: T9, 5-ht5a (Homo sapiens, UniProt P47898); assay: PDSP orthosteric binding screen
T9 construct: Psychoactive Drug Screening Program (PDSP)
Source text: as §1

[12] = molecular target: T10, Alpha1B (Homo sapiens, UniProt P35368); assay: PDSP orthosteric binding screen
T10 construct: Psychoactive Drug Screening Program (PDSP)
Source text: as §1

[13] = molecular target: T11, Alpha1D (Homo sapiens, UniProt P25100); assay: PDSP orthosteric binding screen
T11 construct: Psychoactive Drug Screening Program (PDSP)
Source text: as §1

[14] = molecular target: T12, Alpha2A (Homo sapiens, UniProt P08913); assay: PDSP orthosteric binding screen
T12 construct: Psychoactive Drug Screening Program (PDSP)
Source text: as §1

[15] = molecular target: T13, Alpha2B (Homo sapiens, UniProt P18089); assay: PDSP orthosteric binding screen
T13 construct: Psychoactive Drug Screening Program (PDSP)
Source text: as §1

[16] = molecular target: T14, Alpha2C (Homo sapiens, UniProt P18825); assay: PDSP orthosteric binding screen
T14 construct: Psychoactive Drug Screening Program (PDSP)
Source text: as §1

[17] = tested on: BZP Rat Brain Site; assay: PDSP orthosteric binding screen
Source text: as §1

[18] = molecular target: T15, Beta1 (Homo sapiens, UniProt P08588); assay: PDSP orthosteric binding screen
T15 construct: Psychoactive Drug Screening Program (PDSP)
T15 sequence (P08588 whole entry): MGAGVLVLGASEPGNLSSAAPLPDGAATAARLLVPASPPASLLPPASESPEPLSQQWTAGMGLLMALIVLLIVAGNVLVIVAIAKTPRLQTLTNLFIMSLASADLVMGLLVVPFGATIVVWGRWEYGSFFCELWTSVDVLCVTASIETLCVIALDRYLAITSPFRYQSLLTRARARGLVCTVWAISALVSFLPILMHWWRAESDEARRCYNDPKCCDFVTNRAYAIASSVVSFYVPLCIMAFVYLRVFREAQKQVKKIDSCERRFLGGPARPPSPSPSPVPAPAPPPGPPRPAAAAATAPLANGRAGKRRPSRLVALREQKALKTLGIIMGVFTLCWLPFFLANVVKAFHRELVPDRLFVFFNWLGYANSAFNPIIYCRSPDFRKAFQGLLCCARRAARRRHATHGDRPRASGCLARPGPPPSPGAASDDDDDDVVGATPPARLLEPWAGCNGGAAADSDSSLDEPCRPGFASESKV
Source text: as §1

[19] = molecular target: T16, Beta2 (Homo sapiens, UniProt P07550); assay: PDSP orthosteric binding screen
T16 construct: Psychoactive Drug Screening Program (PDSP)
Source text: as §1

[20] = molecular target: T17, Beta3 (Homo sapiens, UniProt P13945); assay: PDSP orthosteric binding screen
T17 construct: Psychoactive Drug Screening Program (PDSP)
Source text: as §1

[21] = molecular target: T18, D1 (Homo sapiens, UniProt P21728); assay: PDSP orthosteric binding screen
T18 construct: Psychoactive Drug Screening Program (PDSP)
Source text: as §1

[22] = molecular target: T19, D2 (Homo sapiens, UniProt P14416); assay: PDSP orthosteric binding screen
T19 construct: Psychoactive Drug Screening Program (PDSP)
T19 sequence (P14416 whole entry): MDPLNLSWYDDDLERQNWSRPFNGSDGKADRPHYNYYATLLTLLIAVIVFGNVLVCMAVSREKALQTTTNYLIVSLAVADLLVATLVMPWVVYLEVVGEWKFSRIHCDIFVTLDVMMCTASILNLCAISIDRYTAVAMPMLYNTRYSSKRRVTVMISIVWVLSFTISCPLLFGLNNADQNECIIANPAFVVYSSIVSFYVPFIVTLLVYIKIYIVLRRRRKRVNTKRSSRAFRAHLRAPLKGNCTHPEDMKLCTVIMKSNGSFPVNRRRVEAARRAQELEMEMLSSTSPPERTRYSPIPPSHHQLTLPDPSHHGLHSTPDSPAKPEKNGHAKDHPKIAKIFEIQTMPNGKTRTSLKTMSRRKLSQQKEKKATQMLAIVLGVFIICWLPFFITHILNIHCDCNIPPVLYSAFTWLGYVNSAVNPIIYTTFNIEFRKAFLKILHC
Source text: as §1

[23] = molecular target: T20, D3 (Homo sapiens, UniProt P35462); assay: PDSP orthosteric binding screen
T20 construct: Psychoactive Drug Screening Program (PDSP)
Source text: as §1

[24] = molecular target: T21, D4 (Homo sapiens, UniProt P21917); assay: PDSP orthosteric binding screen
T21 construct: Psychoactive Drug Screening Program (PDSP)
Source text: as §1

[25] = molecular target: T22, D5 (Homo sapiens, UniProt P21918); assay: PDSP orthosteric binding screen
T22 construct: Psychoactive Drug Screening Program (PDSP)
T22 sequence (P21918 whole entry): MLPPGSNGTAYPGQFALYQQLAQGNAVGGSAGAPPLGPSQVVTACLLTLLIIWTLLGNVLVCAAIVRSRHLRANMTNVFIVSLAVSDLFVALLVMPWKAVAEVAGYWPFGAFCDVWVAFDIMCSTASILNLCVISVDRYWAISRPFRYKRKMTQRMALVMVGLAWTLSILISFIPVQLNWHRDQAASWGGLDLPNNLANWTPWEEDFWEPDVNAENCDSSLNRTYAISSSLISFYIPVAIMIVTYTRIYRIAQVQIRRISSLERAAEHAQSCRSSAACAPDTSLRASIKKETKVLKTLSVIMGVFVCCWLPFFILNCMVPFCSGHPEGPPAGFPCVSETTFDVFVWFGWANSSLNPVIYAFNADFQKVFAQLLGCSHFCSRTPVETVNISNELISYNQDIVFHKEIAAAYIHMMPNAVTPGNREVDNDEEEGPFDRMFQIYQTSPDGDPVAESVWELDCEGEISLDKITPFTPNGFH
Source text: as §1

[26] = molecular target: T23, DAT (Homo sapiens, UniProt Q01959); assay: PDSP orthosteric binding screen
T23 construct: Psychoactive Drug Screening Program (PDSP)
Source text: as §1

[27] = molecular target: T24, DOR (Homo sapiens, UniProt P41143); assay: PDSP orthosteric binding screen
T24 construct: Psychoactive Drug Screening Program (PDSP)
Source text: as §1

[28] = tested on: GABAA; assay: PDSP orthosteric binding screen
Source text: as §1

[29] = molecular target: T25, H1 (Homo sapiens, UniProt P35367); assay: PDSP orthosteric binding screen
T25 construct: Psychoactive Drug Screening Program (PDSP)
Source text: as §1

[30] = molecular target: T26, H2 (Homo sapiens, UniProt P25021); assay: PDSP orthosteric binding screen
T26 construct: Psychoactive Drug Screening Program (PDSP)
Source text: as §1

[31] = molecular target: T27, H3 (Homo sapiens, UniProt Q9Y5N1); assay: PDSP orthosteric binding screen
T27 construct: Psychoactive Drug Screening Program (PDSP)
T27 sequence (Q9Y5N1 whole entry): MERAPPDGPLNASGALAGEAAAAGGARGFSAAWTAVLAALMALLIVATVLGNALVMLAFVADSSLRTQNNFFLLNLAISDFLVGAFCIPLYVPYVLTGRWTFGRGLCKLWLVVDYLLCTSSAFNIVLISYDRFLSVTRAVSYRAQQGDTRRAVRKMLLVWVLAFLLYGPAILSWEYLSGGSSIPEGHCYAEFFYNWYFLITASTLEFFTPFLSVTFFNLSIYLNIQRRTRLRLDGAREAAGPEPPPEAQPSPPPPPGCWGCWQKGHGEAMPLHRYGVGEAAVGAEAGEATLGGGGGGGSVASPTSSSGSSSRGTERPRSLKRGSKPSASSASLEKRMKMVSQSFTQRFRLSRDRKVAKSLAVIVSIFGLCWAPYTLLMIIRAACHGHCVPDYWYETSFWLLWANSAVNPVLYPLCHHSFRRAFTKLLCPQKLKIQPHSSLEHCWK
Source text: as §1

[32] = molecular target: T28, M1 (Homo sapiens, UniProt P11229); assay: PDSP orthosteric binding screen
T28 construct: Psychoactive Drug Screening Program (PDSP)
Source text: as §1

[33] = molecular target: T29, M5 (Homo sapiens, UniProt P08912); assay: PDSP orthosteric binding screen
T29 construct: Psychoactive Drug Screening Program (PDSP)
T29 sequence (P08912 whole entry): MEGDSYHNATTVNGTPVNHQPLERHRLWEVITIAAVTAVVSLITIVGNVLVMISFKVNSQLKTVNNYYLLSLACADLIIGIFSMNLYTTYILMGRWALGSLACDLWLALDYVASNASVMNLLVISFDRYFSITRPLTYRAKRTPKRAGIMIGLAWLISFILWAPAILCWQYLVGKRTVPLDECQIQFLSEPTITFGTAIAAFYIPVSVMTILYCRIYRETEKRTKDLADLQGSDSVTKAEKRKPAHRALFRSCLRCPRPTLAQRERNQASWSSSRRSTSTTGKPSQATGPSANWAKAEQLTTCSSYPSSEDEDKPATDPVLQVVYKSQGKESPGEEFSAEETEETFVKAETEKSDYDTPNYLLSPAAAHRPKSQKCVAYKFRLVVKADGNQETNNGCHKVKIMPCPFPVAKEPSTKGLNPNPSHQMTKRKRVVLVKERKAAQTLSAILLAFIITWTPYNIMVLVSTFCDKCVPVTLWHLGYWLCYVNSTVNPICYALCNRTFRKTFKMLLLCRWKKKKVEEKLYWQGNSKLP
Source text: as §1

[34] = molecular target: T30, MOR (Homo sapiens, UniProt P35372); assay: PDSP orthosteric binding screen
T30 construct: Psychoactive Drug Screening Program (PDSP)
Source text: as §1

[35] = molecular target: T31, NET (Homo sapiens, UniProt P23975); assay: PDSP orthosteric binding screen
T31 construct: Psychoactive Drug Screening Program (PDSP)
Source text: as §1

[36] = molecular target: T32, SERT (Homo sapiens, UniProt P31645); assay: PDSP orthosteric binding screen
T32 construct: Psychoactive Drug Screening Program (PDSP)
T32 sequence (P31645 whole entry, species assumed): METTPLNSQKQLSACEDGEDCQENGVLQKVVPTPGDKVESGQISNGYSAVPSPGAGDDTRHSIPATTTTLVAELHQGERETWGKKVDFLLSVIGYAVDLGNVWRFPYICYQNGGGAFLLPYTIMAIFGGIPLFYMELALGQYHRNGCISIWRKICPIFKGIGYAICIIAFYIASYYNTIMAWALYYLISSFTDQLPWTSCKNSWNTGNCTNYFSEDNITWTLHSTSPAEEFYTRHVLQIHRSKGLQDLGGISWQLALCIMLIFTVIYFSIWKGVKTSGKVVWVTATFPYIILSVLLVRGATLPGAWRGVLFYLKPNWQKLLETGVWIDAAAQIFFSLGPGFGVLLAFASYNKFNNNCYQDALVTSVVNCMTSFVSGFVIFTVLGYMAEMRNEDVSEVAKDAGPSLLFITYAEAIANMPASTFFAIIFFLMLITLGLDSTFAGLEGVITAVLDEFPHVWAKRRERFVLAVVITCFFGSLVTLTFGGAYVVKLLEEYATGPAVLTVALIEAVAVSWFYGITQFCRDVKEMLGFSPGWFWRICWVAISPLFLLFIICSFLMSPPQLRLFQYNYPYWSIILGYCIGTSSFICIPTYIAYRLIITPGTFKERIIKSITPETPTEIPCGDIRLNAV
Source text: as §1

[37] = tested on: Sigma 1; assay: PDSP orthosteric binding screen
Source text: as §1

Cl.Cn1ncc2c1Nc1ccccc1NC2 [SOC-1]
Fos expression in the oxytocin-positive cells in the supraoptic nucleus of the hypothalamus (SON) ([1]; 5 mg/kg): strongly activates Fos expression
Mean number of Fos-positive cells, BNST (dorsolateral division) ([1]; OT 1 mg/kg, SOC-1 5 mg/kg): 10.25
Mean number of Fos-positive cells, BNST (middle anterior part)) ([1]; OT 1 mg/kg, SOC-1 5 mg/kg): 7
Mean number of Fos-positive cells, Central nucleus of the amygdala ([1]; OT 1 mg/kg, SOC-1 5 mg/kg): 14.33
Mean number of Fos-positive cells, Lateral Parabrachial nucleus ([1]; OT 1 mg/kg, SOC-1 5 mg/kg): 12.91
Mean number of Fos-positive cells, Lateral septum (ventral) ([1]; OT 1 mg/kg, SOC-1 5 mg/kg): 34.17
Mean number of Fos-positive cells, Locus Ceruleus ([1]; OT 1 mg/kg, SOC-1 5 mg/kg): 8.08
Mean number of Fos-positive cells, Medial preoptic area ([1]; OT 1 mg/kg, SOC-1 5 mg/kg): 10.30
Mean number of Fos-positive cells, Median preoptic nucleus ([1]; OT 1 mg/kg, SOC-1 5 mg/kg): 7.08
Mean number of Fos-positive cells, Nucleus of Solitary Tract ([1]; OT 1 mg/kg, SOC-1 5 mg/kg): 17.58
Mean number of Fos-positive cells, PAG (ventrolateral) ([1]; OT 1 mg/kg, SOC-1 5 mg/kg): 8.58
Mean number of Fos-positive cells, Paraventircular nucleus ([1]; OT 1 mg/kg, SOC-1 5 mg/kg): 47.18
Mean number of Fos-positive cells, Supraoptic nucleus ([1]; OT 1 mg/kg, SOC-1 5 mg/kg): 15.42
Mean percent of OT cells that were Fos positive, Paraventircular nucleus ([1]; OT 1 mg/kg, SOC-1 5 mg/kg): 23.41%
Mean percent of OT cells that were Fos positive, Supraoptic nucleus ([1]; OT 1 mg/kg, SOC-1 5 mg/kg): 32.59%
conditioned place preference [2]: does not produce a conditioned place preference
affinity for 5-HT1A [3]: no notable affinity
affinity for 5-HT1B [4]: no notable affinity
affinity for 5-HT1D [5]: no notable affinity
affinity for 5-HT2A [6]: no notable affinity
affinity for 5-HT2C [7]: no notable affinity
affinity for 5-HT3 [8]: no notable affinity
affinity for 5-HT6 [9]: no notable affinity
affinity for 5-HT7 [10]: no notable affinity
affinity for 5-ht5a [11]: no notable affinity
affinity for Alpha1B [12]: no notable affinity
affinity for Alpha1D [13]: no notable affinity
affinity for Alpha2A [14]: no notable affinity
affinity for Alpha2B [15]: no notable affinity
affinity for Alpha2C [16]: no notable affinity
affinity for BZP Rat Brain Site [17]: no notable affinity
affinity for Beta1 [18]: no notable affinity
affinity for Beta2 [19]: no notable affinity
affinity for Beta3 [20]: no notable affinity
affinity for D1 [21]: no notable affinity
affinity for D2 [22]: no notable affinity
affinity for D3 [23]: no notable affinity
affinity for D4 [24]: no notable affinity
affinity for D5 [25]: no notable affinity
affinity for DAT [26]: no notable affinity
affinity for DOR [27]: no notable affinity
affinity for GABAA [28]: no notable affinity
affinity for H1 [29]: no notable affinity
affinity for H2 [30]: no notable affinity
affinity for H3 [31]: no notable affinity
affinity for M1 [32]: no notable affinity
affinity for M5 [33]: no notable affinity
affinity for MOR [34]: no notable affinity
affinity for NET [35]: no notable affinity
affinity for SERT [36]: no notable affinity
affinity for Sigma 1 [37]: no notable affinity
